The text below walks through data of ChEMBL document CHEMBL5465560, “Selectivity Literature for EUbOPEN Chemogenomic Library” (2024).

What is called IC50 is the concentration that gives 50% inhibition. A higher IC50 goes with lower potency.

Assay [1] addresses Serine/threonine-protein kinase pim-2 (Homo sapiens, UniProt Q9P1W9). Kind of assay: Selectivity interaction (Ambit KINOMEscan and KiNATiv profiling in Jurkat cells) EUB0000090b PIM2. The assay is classed as cell-based. The note with it: at 1 µM.
The target in assay [2] is G protein-coupled receptor kinase 4 (Homo sapiens) (UniProt P32298). Kind of assay: Selectivity interaction (SelectScreen profiling (Invitrogen)) EUB0000607a GRK4. The conditions noted are these: at 2 µM.
The target of assay [3] is Protein kinase C theta type (Homo sapiens, UniProt Q04759). Kind of assay: Selectivity interaction (KinomeScan (DiscoverX)) EUB0000607a PRKCQ. The conditions noted are these: at 10 µM.
For assay [4], the target named is Cell division control protein 42 homolog (Homo sapiens) (UniProt P60953). Kind of assay: Selectivity interaction (SelectScreen profiling (Invitrogen)) EUB0000607a CDC42. The note with it: at 2 µM.
Assay [5] relates to Tyrosine-protein kinase ABL1 (Homo sapiens), P00519 [Q252H]. Kind of assay: Selectivity interaction (KinomeScan (DiscoverX)) EUB0001079a ABL1. The note with it: at 1 µM.
Assay [6] has as its target SRSF protein kinase 2 (Homo sapiens) (UniProt P78362). Kind of assay: Selectivity interaction (KinomeScan (DiscoverX)) EUB0001079a SRPK2. The conditions noted are these: at 1 µM.
Assay [7] has as its target High affinity nerve growth factor receptor (Homo sapiens, UniProt P04629). Kind of assay: Selectivity interaction (KinaseProfiler screening (Millipore)) EUB0000601a NTRK1. The note with it: at 3 µM.
Assay [8] concerns the target Serine/threonine-protein kinase N2 (Homo sapiens, UniProt Q16513). Kind of assay: Selectivity interaction (KinomeScan (DiscoverX)) EUB0001619a PKN2. The conditions noted are these: at 1 µM.
A further assay concerns the target Insulin receptor (Homo sapiens, UniProt P06213). Kind of assay: Selectivity interaction (Kinase panel (literature)) EUB0001199aCl INSR. The note with it: at 1 µM.
The target in assay [9] is Rho-associated protein kinase 2 (Homo sapiens, UniProt O75116). Kind of assay: Selectivity interaction (Kinase panel (33PanQinase(R) Activity Assay)) EUB0000877a ROCK2.
Sequence of Rho-associated protein kinase 2 (O75116 whole entry): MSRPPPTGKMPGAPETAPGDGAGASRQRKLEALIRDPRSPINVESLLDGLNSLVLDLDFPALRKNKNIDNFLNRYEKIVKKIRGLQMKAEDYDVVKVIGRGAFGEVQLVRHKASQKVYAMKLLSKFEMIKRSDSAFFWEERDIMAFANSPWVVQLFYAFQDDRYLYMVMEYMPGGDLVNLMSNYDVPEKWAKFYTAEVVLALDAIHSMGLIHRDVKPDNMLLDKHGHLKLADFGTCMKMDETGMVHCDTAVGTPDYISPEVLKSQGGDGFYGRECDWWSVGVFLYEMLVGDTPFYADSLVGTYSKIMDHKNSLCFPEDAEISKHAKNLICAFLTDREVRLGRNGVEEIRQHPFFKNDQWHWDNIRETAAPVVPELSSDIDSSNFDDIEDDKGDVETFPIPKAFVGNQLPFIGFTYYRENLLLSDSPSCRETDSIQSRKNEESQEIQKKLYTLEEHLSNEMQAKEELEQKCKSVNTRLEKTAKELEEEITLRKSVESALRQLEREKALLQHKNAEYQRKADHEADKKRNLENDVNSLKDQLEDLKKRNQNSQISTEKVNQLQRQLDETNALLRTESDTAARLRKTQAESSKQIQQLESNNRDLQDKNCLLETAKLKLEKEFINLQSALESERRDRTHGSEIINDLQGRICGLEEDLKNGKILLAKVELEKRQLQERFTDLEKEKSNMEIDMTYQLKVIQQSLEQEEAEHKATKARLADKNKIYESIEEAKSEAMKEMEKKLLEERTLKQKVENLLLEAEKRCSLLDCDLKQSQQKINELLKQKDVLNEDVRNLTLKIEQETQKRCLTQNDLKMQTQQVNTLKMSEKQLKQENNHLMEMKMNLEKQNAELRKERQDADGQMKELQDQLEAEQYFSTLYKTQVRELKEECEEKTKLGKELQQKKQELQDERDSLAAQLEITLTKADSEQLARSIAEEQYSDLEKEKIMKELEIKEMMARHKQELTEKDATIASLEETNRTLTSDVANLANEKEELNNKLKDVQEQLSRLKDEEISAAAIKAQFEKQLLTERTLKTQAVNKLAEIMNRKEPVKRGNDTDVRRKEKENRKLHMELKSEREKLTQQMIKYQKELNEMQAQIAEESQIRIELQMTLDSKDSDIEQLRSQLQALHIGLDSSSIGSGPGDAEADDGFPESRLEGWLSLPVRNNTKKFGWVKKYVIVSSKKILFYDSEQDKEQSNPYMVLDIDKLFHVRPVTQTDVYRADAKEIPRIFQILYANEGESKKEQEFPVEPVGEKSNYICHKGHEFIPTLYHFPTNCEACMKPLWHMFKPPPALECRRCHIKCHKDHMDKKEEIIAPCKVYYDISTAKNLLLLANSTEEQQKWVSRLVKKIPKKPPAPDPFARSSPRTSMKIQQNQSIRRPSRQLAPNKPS
The target of assay [10] is T1, Mitogen-activated protein kinase kinase kinase 6 (Homo sapiens) (UniProt O95382).
T1 sequence (whole entry): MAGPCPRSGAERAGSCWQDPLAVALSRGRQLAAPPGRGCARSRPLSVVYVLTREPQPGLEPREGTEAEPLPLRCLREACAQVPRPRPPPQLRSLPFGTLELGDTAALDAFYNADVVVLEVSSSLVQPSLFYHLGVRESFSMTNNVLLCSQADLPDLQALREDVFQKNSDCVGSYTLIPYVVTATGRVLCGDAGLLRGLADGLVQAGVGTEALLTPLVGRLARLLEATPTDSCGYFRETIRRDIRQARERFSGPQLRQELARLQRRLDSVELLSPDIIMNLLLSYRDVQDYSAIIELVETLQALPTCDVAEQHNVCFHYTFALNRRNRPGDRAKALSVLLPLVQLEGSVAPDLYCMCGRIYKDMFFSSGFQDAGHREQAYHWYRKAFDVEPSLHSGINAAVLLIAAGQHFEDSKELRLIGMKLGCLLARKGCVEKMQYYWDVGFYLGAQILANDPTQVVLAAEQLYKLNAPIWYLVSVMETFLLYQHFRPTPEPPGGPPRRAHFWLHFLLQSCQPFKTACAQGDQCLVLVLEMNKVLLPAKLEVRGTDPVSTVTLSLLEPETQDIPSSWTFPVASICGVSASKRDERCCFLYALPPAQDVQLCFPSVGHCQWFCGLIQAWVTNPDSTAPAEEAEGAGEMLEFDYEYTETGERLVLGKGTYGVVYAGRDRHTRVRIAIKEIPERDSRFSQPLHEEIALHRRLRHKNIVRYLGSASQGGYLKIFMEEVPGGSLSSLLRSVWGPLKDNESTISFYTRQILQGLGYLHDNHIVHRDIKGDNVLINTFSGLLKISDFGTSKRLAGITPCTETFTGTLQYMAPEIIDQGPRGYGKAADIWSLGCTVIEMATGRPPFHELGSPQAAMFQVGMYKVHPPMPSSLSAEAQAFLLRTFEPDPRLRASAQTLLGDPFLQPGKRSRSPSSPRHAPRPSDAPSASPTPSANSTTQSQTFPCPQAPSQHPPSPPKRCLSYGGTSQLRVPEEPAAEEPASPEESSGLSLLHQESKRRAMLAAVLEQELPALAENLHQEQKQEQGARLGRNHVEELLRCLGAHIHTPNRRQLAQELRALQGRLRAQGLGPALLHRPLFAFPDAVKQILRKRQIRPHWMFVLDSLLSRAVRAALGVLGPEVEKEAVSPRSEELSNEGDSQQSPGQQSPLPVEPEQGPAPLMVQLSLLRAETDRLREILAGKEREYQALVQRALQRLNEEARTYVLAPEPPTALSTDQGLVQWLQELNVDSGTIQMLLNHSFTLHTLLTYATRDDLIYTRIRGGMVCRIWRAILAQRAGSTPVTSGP
Kind of assay: Selectivity interaction (ActivX KiNativ screen (kinase selectivity in THP-1 cell lysates)) EUB0000639a MAP3K6. The assay is classed as subcellular. The note with it: lysate, at 0.2 µM.

Assay [11] deals with Tyrosine-protein kinase ABL2 (Homo sapiens, UniProt P42684). Kind of assay: Selectivity interaction (ActivX KiNativ screen (kinase selectivity in THP-1 cell lysates)) EUB0000639a ABL2. The conditions noted are these: lysate, at 0.04 µM. The assay is classed as subcellular.
Sequence of Tyrosine-protein kinase ABL2 (P42684 whole entry): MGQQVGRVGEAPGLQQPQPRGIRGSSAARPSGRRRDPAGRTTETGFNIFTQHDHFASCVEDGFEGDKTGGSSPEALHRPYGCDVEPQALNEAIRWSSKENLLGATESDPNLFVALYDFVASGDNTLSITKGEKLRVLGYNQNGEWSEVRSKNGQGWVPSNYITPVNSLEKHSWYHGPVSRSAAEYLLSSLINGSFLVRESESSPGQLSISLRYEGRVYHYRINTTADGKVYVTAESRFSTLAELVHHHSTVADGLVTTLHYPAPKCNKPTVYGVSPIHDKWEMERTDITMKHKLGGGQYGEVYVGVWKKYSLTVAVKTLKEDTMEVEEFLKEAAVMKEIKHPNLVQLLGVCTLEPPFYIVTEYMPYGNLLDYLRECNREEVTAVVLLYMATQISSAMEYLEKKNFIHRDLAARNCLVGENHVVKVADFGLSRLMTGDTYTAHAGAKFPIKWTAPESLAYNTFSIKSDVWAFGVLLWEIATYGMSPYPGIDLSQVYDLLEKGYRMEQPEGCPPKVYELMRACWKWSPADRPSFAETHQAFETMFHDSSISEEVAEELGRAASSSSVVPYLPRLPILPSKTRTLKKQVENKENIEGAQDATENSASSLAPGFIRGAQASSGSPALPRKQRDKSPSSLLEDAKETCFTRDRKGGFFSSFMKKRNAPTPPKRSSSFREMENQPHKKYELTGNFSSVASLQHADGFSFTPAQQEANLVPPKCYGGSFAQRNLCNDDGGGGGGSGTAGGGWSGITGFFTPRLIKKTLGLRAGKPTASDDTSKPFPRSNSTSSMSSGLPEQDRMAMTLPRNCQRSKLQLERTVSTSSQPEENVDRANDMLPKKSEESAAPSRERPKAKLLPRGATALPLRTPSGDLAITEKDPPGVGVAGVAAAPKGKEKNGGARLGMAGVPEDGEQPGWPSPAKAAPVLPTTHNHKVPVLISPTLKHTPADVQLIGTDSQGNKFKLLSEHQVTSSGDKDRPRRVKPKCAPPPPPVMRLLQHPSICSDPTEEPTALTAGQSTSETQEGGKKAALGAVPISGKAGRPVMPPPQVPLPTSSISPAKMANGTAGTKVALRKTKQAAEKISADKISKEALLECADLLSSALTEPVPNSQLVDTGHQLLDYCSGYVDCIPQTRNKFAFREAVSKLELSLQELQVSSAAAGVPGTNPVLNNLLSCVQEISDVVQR
The target in assay [12] is Homeodomain-interacting protein kinase 2 (Homo sapiens, UniProt Q9H2X6). Kind of assay: Selectivity interaction (KinomeScan (DiscoverX)) EUB0001049a HIPK2. The note with it: at 1 µM.
For another assay, the target named is Histamine H3 receptor (Homo sapiens, UniProt Q9Y5N1). Kind of assay: Selectivity interaction (Eurofins CEREP Diversity Profile (receptors and ion channels)) EUB0000279b HRH3. The note with it: at 10 µM.
Assay [13] deals with Histone acetyltransferase p300 (Homo sapiens) (UniProt Q09472). Kind of assay: Selectivity interaction (Transferase panel (protein, RNA, and DNA methyltransferases. and EP300 (acetyltransferase))) EUB0000270b EP300.
Sequence of Histone acetyltransferase p300 (Homo sapiens) (Q09472 whole entry): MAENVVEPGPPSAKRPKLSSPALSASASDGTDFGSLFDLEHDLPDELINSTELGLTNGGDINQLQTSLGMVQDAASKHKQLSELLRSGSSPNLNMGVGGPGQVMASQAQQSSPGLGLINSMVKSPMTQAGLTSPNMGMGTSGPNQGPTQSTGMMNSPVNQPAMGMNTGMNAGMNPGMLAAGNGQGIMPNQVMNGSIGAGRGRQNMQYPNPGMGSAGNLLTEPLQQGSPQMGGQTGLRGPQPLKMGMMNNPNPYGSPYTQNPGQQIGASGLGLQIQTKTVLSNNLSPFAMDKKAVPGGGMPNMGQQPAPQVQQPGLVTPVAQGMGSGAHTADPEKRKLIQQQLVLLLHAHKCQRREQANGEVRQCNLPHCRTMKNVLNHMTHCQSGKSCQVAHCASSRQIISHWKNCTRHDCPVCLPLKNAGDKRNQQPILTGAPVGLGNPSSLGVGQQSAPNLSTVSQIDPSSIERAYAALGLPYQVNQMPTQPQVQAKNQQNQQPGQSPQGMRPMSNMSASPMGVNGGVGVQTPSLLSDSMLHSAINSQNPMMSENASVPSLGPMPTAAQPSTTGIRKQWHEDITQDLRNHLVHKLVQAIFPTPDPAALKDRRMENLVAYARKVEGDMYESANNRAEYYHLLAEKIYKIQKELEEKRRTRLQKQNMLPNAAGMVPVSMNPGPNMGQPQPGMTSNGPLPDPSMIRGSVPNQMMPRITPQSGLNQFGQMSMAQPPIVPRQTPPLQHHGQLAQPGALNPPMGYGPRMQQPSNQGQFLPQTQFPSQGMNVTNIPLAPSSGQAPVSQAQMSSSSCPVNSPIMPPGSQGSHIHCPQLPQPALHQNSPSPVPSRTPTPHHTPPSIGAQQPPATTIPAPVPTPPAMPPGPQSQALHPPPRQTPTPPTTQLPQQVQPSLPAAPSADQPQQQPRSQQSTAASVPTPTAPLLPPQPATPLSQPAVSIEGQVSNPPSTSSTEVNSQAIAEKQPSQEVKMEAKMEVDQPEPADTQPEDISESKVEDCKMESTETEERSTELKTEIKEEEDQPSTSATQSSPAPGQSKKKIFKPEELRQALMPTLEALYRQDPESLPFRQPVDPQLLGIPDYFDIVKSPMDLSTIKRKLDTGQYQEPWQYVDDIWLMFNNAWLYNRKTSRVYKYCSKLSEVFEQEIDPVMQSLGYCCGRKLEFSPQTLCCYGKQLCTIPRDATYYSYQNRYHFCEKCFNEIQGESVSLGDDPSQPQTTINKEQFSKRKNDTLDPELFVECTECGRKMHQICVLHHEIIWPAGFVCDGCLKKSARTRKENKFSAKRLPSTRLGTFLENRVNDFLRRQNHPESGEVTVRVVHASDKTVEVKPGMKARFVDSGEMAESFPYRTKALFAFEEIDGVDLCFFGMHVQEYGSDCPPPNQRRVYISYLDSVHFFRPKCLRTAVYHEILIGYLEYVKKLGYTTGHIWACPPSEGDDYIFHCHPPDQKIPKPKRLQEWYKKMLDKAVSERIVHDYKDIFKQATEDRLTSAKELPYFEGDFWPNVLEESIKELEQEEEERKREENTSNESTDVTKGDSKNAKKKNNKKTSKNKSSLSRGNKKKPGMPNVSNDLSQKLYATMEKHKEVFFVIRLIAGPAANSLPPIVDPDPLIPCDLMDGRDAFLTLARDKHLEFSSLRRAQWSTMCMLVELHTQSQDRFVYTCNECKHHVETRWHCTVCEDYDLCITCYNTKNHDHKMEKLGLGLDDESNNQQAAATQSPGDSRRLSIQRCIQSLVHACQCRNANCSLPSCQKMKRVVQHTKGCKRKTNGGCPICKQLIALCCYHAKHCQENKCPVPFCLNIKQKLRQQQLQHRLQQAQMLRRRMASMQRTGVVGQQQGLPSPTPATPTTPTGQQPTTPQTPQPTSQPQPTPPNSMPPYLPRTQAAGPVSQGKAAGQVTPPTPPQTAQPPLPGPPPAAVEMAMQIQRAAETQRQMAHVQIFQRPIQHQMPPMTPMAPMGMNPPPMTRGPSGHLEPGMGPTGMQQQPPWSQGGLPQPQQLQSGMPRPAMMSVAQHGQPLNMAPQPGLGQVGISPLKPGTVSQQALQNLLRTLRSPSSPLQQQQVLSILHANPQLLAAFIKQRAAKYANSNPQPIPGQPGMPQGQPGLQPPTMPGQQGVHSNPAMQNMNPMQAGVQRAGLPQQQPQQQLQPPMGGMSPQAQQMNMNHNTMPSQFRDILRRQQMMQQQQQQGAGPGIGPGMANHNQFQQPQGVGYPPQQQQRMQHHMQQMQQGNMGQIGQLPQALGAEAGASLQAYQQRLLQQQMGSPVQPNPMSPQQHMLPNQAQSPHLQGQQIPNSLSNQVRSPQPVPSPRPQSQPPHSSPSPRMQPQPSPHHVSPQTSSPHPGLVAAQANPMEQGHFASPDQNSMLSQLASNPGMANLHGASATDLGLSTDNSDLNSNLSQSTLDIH
Assay [14] has as its target T2, Serine/threonine-protein kinase 17A (Homo sapiens) (UniProt Q9UEE5).
T2 sequence (whole entry): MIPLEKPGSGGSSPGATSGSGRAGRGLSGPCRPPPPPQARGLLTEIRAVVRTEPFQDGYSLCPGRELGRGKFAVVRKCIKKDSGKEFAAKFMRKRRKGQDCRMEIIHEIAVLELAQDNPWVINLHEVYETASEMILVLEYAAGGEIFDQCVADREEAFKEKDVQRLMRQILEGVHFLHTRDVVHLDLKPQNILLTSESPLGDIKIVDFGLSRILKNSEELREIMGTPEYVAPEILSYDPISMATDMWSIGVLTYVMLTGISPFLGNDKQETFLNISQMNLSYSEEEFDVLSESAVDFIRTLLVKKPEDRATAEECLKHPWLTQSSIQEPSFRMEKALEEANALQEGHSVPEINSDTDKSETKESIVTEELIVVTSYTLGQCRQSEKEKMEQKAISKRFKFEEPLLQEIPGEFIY
Kind of assay: Selectivity interaction (KinomeScan (DiscoverX)) EUB0000595a STK17A. The note with it: at 10 µM.

The target in assay [15] is Tyrosine-protein kinase Blk (Homo sapiens) (UniProt P51451). The conditions noted are these: at 10 µM.

In turn, `CN(C)C/C=C/C(=O)Nc1ccc(C(=O)N2CCCC(Nc3ncc(Cl)c(-c4c[nH]c5ccccc45)n3)C2)cc1` (stereo not drawn) came in with a % of control in [1] of 89%.
As to `CNC(=O)Nc1ccc(-c2nc(N3CC4CCC(C3)O4)c3cnn(C4CCC5(CC4)OCCO5)c3n2)cc1`, the % of inhibition in assay [2] is -4%; in assay [4] it was 9%. This molecule displayed a % of control in assay [3] of 100%.
With `Nc1cnc(N2CCc3cc(S(=O)(=O)Nc4c(F)cc(Cl)cc4F)cc(N4CCCC4=O)c32)nc1` [TP-020n], the % of control in assay [5] stood at 98%; in assay [6], 100%.
For `CCc1cc(Nc2nccc(-c3c(-c4ccc(OC)c(C(=O)Nc5c(F)cccc5F)c4)nc4ccccn34)n2)c(OC)cc1N1CCC(N2CCN(S(C)(=O)=O)CC2)CC1`, the % of inhibition in [7] came to 59%.
In turn, `N#Cc1cccc(-c2c[nH]c3ncnc(N4CCOCC4)c23)c1` displayed a % of control in assay [8] of 35%.
As for `CN1Cc2nccc(-c3cn(C)nc3-c3ccc(F)cc3)c2C1=O`, the % of inhibition at Insulin receptor stood at 3%.
On to `CCC(=O)N1CC[C@H](Nc2ncnc3c2CN(c2cnc(OC)c(C(F)(F)F)c2)CC3)C1` [LENIOLISIB], for which, in assay [9], the half-inhibitory concentration (IC50) is > 10 µM.
`CC[C@@H]1[C@H](F)C(=O)N[C@@H]1COc1nccc2cc(C(N)=O)c(OC)cc12` [ZIMLOVISERTIB]: the % of inhibition in [10] is -13.5%; in [11] it was -16.4%.
Molecule `COc1cc(Nc2nc(C)cc(-c3cnn4nc(OC)ccc34)n2)cc(C(F)(F)F)c1` showed a % of control in assay [12] of 94%.
`CC(=O)c1cc(-c2ccccc2OCC2CC2)c2ncccn12` had a % of control at Histamine H3 receptor of 105%.
For `Cc1cc(CN)cc(C)c1-c1ncn(C)c1-c1cncn1C`, the % activity in assay [13] (at 1 µM) was > 90%; in assay [13] (at 10 µM), > 80%.
For the molecule `COCC(=O)NC/C=C/c1ccc2ncnc(Nc3ccc(Oc4ccc(C)nc4)c(C)c3)c2c1` [CP-724714], the % of control in assay [14] came to 84%; in [15] it was 62%.
